Data as given in ChEMBL document CHEMBL1201862, “PubChem BioAssay data set” (2004).
The source made the active and inactive calls.

What was measured:
[1] = target: T1, Caspase-3 (Homo sapiens, UniProt P42574); type: functional;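 note: Dose-response selectivity test against caspase-3 for candidate inhibitors of sentrin-specific proteases (SENPs)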
T1 sequence (P42574 whole entry): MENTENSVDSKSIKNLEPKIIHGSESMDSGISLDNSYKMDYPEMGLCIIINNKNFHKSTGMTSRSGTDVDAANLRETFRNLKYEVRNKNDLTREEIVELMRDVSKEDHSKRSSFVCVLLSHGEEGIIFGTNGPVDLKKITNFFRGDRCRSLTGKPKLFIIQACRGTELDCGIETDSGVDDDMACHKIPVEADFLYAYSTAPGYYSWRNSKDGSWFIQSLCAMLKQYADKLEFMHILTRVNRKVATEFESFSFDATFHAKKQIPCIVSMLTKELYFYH

[2] = target: T2, Sentrin-specific protease 7 (Homo sapiens, UniProt Q9BQF6); type: functional;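 note: Luminescence-based dose-response confirmation of ultra-high-throughput screening hits, measuring inhibition of SENP7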
T2 sequence (Q9BQF6 whole entry): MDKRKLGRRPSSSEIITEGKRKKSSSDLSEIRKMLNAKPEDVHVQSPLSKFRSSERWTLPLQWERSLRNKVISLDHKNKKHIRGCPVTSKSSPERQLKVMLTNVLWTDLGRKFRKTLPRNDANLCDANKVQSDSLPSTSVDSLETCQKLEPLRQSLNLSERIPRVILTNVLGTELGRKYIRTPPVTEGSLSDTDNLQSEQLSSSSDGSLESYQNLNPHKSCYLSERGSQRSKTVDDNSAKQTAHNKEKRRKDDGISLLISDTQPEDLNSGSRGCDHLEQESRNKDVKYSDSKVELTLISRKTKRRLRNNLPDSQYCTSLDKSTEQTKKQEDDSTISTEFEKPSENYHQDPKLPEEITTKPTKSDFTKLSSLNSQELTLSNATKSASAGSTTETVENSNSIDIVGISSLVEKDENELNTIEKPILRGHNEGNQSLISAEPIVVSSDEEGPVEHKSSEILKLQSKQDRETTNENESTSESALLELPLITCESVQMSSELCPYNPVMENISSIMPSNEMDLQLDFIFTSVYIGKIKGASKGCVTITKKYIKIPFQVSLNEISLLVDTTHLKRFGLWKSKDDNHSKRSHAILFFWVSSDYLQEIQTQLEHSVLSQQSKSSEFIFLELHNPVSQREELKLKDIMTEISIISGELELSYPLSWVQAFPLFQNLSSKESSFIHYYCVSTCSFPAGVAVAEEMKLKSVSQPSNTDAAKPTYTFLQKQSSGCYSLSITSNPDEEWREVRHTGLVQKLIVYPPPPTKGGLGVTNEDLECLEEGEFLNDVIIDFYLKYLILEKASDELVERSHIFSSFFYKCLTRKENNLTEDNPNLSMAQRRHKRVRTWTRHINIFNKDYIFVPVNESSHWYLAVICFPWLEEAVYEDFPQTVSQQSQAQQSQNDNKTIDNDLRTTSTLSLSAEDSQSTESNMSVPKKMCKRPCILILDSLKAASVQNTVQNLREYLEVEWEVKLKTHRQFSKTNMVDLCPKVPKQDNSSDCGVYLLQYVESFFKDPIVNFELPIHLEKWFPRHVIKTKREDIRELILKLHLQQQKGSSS

[3] = target: T3, Sentrin-specific protease 6 (Homo sapiens, UniProt Q9GZR1); type: functional;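 note: Luminescence-based dose-response confirmatory assay of SENP6 inhibition, following up an ultra-high-throughput screen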
T3 sequence (Q9GZR1 whole entry): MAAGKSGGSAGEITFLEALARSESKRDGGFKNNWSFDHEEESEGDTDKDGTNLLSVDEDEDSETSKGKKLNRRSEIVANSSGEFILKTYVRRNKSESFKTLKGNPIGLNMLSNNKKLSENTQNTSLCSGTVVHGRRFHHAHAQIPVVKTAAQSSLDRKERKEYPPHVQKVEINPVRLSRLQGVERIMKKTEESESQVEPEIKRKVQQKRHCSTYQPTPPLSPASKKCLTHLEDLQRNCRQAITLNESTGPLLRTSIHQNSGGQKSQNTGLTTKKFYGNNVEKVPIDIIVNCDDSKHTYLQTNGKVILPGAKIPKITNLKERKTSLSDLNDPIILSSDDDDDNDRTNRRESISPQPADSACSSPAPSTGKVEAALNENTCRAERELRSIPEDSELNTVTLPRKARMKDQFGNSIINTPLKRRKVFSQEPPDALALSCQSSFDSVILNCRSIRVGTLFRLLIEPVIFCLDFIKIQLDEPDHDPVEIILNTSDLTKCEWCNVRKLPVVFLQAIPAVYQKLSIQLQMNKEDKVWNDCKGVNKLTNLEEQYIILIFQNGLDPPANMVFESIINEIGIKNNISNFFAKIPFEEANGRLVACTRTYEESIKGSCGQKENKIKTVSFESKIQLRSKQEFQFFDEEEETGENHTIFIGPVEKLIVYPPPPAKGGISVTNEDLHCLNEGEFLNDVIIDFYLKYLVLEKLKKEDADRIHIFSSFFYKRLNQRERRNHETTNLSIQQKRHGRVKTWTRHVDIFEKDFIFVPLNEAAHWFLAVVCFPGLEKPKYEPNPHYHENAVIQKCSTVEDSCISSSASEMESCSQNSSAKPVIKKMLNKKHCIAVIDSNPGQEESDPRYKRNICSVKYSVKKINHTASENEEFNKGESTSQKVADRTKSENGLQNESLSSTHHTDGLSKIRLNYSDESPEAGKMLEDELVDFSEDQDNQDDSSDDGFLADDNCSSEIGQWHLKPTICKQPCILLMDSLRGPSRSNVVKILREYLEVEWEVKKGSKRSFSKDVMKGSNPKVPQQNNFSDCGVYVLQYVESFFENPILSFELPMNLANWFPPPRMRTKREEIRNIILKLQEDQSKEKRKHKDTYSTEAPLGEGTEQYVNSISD

[4] = target: T4, Sentrin-specific protease 8 (Homo sapiens, UniProt Q96LD8); type: functional;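 note: luminescence read-out of SENP8 inhibition, dose-response confirmation following an ultra-high-throughput screen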
T4 sequence (Q96LD8 whole entry): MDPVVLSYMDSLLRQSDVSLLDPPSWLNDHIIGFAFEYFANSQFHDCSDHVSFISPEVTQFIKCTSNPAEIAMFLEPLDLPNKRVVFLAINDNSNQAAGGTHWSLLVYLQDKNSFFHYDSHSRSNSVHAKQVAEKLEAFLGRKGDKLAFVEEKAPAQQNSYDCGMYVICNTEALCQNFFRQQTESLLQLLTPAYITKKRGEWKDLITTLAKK

[5] = target: T5, Oxysterols receptor LXR-beta (Homo sapiens, UniProt P55055); type: functional, cell-based;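 note: agonist activity at LXR measured by a cell-based luminescence readout across a dose range, run as a counterscreen for daf-12 agonists; HEK293 cells with Gal4-LXR fusion and GAL4-driven luciferase reporter; potency for activation of Gal4-LXR reporter so compounds are agonists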
T5 sequence (P55055 whole entry): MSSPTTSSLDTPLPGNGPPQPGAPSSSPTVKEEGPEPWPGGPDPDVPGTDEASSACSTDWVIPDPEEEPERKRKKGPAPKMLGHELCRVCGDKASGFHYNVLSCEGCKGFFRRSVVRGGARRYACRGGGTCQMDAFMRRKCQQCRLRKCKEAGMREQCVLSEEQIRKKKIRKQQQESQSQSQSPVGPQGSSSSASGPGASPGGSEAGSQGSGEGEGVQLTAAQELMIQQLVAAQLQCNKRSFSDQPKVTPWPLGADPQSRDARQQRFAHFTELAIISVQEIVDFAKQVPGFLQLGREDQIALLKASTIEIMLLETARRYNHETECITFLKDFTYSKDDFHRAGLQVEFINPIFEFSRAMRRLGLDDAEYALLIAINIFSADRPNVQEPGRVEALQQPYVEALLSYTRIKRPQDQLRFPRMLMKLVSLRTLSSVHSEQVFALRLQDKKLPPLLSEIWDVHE

[6] = target: T6, Endoribonuclease toxin MazF (Escherichia coli K-12, UniProt P0AE70); assay: MazF toxin RNase activators, dose response, biochemical, fluorescence, single-stranded RNA substrate, uHTS hits (AID 588481); type: functional
T6 sequence (P0AE70 whole entry): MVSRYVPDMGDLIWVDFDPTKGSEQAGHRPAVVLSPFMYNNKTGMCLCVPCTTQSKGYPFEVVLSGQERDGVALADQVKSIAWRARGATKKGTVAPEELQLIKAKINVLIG

[7] = target: T6, Endoribonuclease toxin MazF; assay: fluorescent RNA oligo signal without MazF, dose response, counter-screen for MazEF activator project, biochemical, fluorescence, single-stranded RNase substrate (AID 588502); type: functional
[8] = target: T7, Corticotropin-releasing factor receptor 2/Corticotropin-releasing factor-binding protein (Homo sapiens, UniProt P24387+Q13324); assay: activators of CRF receptor 2 with binding protein – uHTS hits, confirmation (AID 602473); type: functional; conditions: read-out: EC50_Mean
T7 sequence (Q13324 whole entry): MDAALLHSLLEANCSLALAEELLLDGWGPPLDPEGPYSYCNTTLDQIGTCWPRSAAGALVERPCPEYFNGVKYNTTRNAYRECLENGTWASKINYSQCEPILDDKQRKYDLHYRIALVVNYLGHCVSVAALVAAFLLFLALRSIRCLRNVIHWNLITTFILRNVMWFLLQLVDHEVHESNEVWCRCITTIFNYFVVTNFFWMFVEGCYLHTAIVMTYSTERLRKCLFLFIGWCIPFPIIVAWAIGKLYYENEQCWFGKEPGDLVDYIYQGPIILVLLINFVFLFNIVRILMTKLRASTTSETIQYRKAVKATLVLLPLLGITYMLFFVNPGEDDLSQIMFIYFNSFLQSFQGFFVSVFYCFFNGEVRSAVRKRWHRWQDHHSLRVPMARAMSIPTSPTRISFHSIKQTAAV
T7 sequence (P24387 whole entry): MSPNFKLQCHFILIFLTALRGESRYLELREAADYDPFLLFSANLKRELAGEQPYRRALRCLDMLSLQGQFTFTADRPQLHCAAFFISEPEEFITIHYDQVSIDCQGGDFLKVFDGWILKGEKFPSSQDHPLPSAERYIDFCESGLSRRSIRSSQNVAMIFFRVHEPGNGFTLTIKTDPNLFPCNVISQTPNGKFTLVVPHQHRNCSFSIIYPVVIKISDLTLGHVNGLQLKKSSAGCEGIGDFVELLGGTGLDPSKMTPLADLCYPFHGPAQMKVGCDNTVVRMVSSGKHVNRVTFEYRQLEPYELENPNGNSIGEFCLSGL

[9] = target: T8, Short transient receptor potential channel 4 (Mus musculus, UniProt Q9QUQ5); assay: mouse TRPC4 channel inhibitors, dose response, cell-based, HEK293 TRPC4/mu-opioid, Fluo-4 calcium (AID 434942); type: functional;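 note: potency of inhibitors blocking the TRPC4 calcium response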
T8 sequence (Q9QUQ5 whole entry): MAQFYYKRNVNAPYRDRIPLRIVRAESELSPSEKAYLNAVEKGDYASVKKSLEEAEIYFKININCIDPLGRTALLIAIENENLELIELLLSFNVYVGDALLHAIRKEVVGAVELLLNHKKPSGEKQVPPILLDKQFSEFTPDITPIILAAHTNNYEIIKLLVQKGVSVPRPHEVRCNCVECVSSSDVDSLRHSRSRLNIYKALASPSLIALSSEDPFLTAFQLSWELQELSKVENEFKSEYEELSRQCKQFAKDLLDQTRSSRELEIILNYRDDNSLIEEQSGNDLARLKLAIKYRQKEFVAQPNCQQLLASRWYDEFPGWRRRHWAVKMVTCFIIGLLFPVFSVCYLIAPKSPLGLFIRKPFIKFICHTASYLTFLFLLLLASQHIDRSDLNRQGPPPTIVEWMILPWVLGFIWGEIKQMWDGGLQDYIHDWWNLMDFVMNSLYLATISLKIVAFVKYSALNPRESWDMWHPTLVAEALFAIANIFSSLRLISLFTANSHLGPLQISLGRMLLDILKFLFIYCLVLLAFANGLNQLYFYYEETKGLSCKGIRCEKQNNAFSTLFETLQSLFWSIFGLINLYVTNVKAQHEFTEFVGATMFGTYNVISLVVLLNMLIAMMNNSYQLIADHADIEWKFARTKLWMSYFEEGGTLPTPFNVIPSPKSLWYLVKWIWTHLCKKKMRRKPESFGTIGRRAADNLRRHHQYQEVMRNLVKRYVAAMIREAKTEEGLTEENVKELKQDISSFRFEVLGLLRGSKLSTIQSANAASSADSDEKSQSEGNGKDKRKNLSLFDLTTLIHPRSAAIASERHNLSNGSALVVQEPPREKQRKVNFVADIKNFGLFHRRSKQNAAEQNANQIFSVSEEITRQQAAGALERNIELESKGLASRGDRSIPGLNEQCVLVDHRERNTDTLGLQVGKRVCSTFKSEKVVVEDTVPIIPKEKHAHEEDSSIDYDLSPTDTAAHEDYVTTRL

[10] = tested on: HEK293; assay: inhibitors of LMP1-driven NF-kB reporter, dose response, cell-based, HEK293, luciferase, cherry-pick (AID 588343); type: functional; conditions: Homo sapiens

Row | SMILES | IC50 [1] | IC50 [2] | IC50 [3] | IC50 [4] | EC50 [6] | EC50 [7] | also measured
1 | Cc1c(C(=O)Nc2ccccc2)csc1-c1ccccc1 | 19.3 µM (active) | 8.96 µM (active) | 6.64 µM (active) | 7.47 µM (active) | – | – | EC50 [5]: > 67.5 µM (inactive)
2 | CCN(CC)S(=O)(=O)c1ccc2oc(Nc3ccccc3)nc2c1 | 29.7 µM (active) | 9.19 µM (active) | > 100 µM (inactive) | > 100 µM (inactive) | – | – | –
3 | CCOc1ccc(S(=O)(=O)NN)cc1 | – | – | – | – | > 99 µM (inactive) | 23.9 µM (inactive) | –
4 | CCCNC(=O)Cn1c(=O)/c(=C\c2ccc(-c3cccc([N+](=O)[O-])c3)o2)s/c1=C\C(=O)C(C)(C)C | – | – | – | – | > 99 µM (inactive) | > 99 µM (inactive) | EC50 [8]: > 53 µM (inactive)
5 | Cc1ccc(CN2CCN(CC(=O)N/N=C/c3ccccc3F)CC2)cc1 | 34.4 µM (active) | 14.3 µM (active) | 27 µM (active) | > 100 µM (inactive) | – | – | –
6 | CCn1c2ccccc2c2cc(/C=N/NC(=O)c3cc(O)cc(O)c3)ccc21 | – | – | – | – | – | – | EC50 [9]: 0.749 µM (active); AC50 [10]: 8.43 µM (active)
